The source of these data is US20230002357A1, “7-PYRIMIDINE-2-YL-OXY-INDAZOLE DERIVATIVES AND THEIR USE AS HERBICIDES” (SYNGENTA CROP PROTECTION AG, priority 2019, published 2023).

Assay type in all cases: in vivo
Settings in all cases: 250 g/ha, evaluated after 13 days

The test system of assay [1] is IPOHE. Description: Pre-emergence Test, glasshouse, IPOHE. Put shortly: (§1)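 Damage was scored 13 days after treatment on a five-point scale (1=0-20% up to 5=81-100%). Plants in soil were sprayed one day after sowing for pre-emergence or eight days after for post-emergence, at 250 g/ha unless otherwise stated. The glasshouse was held at 24/16 °C with 14 h light.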
In assay [2] the test system is Amaranthus retoflexus (AMARE). The experiment in a line: Pre-emergence Test, glasshouse, AMARE. Put shortly:
as §1

The test system of assay [3] is Setaria faberi (SETFA). The experiment in a line: Post-emergence Test, glasshouse, SETFA. Put shortly: as §1
The subject of assay [4] is IPOHE. The experiment in a line: Post-emergence Test, glasshouse, IPOHE. Put shortly: as §1
The test system of assay [5] is Setaria faberi (SETFA). The experiment in a line: Pre-emergence Test, glasshouse, SETFA. Put shortly: as §1
The subject of assay [6] is ABUTH. The experiment in a line: Pre-emergence Test, glasshouse, ABUTH. Put shortly:
as §1

Assay [7] concerns ABUTH. Description: Post-emergence Test, glasshouse, ABUTH. Put shortly: as §1
For assay [8], the system named is Echinochloa crus-galli (ECHCG). The experiment in a line: Post-emergence Test, glasshouse, ECHCG. Put shortly:
as §1

In assay [9] the test system is Amaranthus retoflexus (AMARE). Description: Post-emergence Test, glasshouse, AMARE. Put shortly: as §1
The subject of assay [10] is Echinochloa crus-galli (ECHCG). The experiment in a line: Pre-emergence Test, glasshouse, ECHCG. Put shortly: as §1

As to `C#CCn1nc(Cl)c2cccc(Oc3ncc(Cl)cn3)c21` [Compound 1.059], the “percentage damage caused to the plant, five-point scale, IPOHE” value (from here on “percentage damage caused … IPOHE”) in the assay with IPOHE [1] and in the assay with IPOHE [4] was 1 (1=0-20%) throughout. The “percentage damage caused to the plant, five-point scale, AMARE” value (“percentage damage caused … AMARE” for short) in assay [2] is 2 (2=21-40%); in [9] it was 4 (4=61-80%). Also, the “percentage damage caused to the plant, five-point scale, SETFA” value (“percentage damage caused … SETFA” for short) in the assay with Setaria faberi (SETFA) [3] is 1 (1=0-20%); in the assay on Setaria faberi (SETFA) [5] it was 2 (2=21-40%). Further, the “percentage damage caused to the plant, five-point scale, ABUTH” value (“percentage damage caused … ABUTH” for short) with ABUTH [6] and in the assay on ABUTH [7] was 2 (2=21-40%) each time. The “percentage damage caused to the plant, five-point scale, ECHCG” value (“percentage damage caused … ECHCG” for short) in assay [8] is 1 (1=0-20%); in assay [10], 2 (2=21-40%).

With `COCCCn1nc(Cl)c2cccc(Oc3ncc(Cl)cn3)c21` [Compound 1.060], the “percentage damage caused … IPOHE” value in the assay on IPOHE [1] and with IPOHE [4] was 2 (2=21-40%) in each case. In addition, the “percentage damage caused … AMARE” value is 4 (4=61-80%) in [2] and 3 (3=41-60%) in assay [9]. In addition, the “percentage damage caused … SETFA” value in the assay with Setaria faberi (SETFA) [3] is given as 3 (3=41-60%); in the assay on Setaria faberi (SETFA) [5], 4 (4=61-80%). In addition, the “percentage damage caused … ABUTH” value is listed as 4 (4=61-80%) with ABUTH [6] and 3 (3=41-60%) with ABUTH [7]. In addition, the “percentage damage caused … ECHCG” value in [8] and in [10] was 4 (4=61-80%) each time.

Turning to `CCCn1nc(Cl)c2cccc(Oc3ncc(Cl)cn3)c21` [Compound 1.061], the “percentage damage caused … IPOHE” value is recorded as 1 (1=0-20%) in the assay on IPOHE [1] and 2 (2=21-40%) with IPOHE [4]. Further, the results for the “percentage damage caused … AMARE” value in assay [2] and in assay [9] were 3 (3=41-60%) and 4 (4=61-80%), respectively. Further, the “percentage damage caused … SETFA” value in the assay with Setaria faberi (SETFA) [3] is given as 2 (2=21-40%); in the assay with Setaria faberi (SETFA) [5] it was 5 (5=81-100%). In addition, the “percentage damage caused … ABUTH” value in the assay with ABUTH [6] was 1 (1=0-20%); in the assay with ABUTH [7], 2 (2=21-40%). Besides, the “percentage damage caused … ECHCG” value in [8] is recorded as 2 (2=21-40%); in [10] it was 4 (4=61-80%).

For the molecule `FCCn1nc(Cl)c2cccc(Oc3ncc(Cl)cn3)c21` [Compound 1.062], the “percentage damage caused … IPOHE” value in the assay with IPOHE [1] and in the assay with IPOHE [4] was 1 (1=0-20%) throughout. The “percentage damage caused … AMARE” value is listed as 4 (4=61-80%) in [2] and 3 (3=41-60%) in assay [9]. Besides, the “percentage damage caused … SETFA” value in the assay on Setaria faberi (SETFA) [3] is 1 (1=0-20%); in the assay on Setaria faberi (SETFA) [5], 4 (4=61-80%). Further, the entries for the “percentage damage caused … ABUTH” value in the assay with ABUTH [6] and in the assay on ABUTH [7] were 1 (1=0-20%) and 2 (2=21-40%), respectively. Moreover, the “percentage damage caused … ECHCG” value is 1 (1=0-20%) in [8] and 2 (2=21-40%) in assay [10].

For the molecule `FC(F)Cn1nc(Cl)c2cccc(Oc3ncc(Cl)cn3)c21` [Compound 1.063], the results for the “percentage damage caused … IPOHE” value in the assay with IPOHE [1] and in the assay on IPOHE [4] were 1 (1=0-20%) and 2 (2=21-40%), respectively. Moreover, the “percentage damage caused … AMARE” value is recorded as 3 (3=41-60%) in [2] and 4 (4=61-80%) in assay [9]. In addition, the “percentage damage caused … SETFA” value with Setaria faberi (SETFA) [3] and in the assay on Setaria faberi (SETFA) [5] was 2 (2=21-40%) in each case. Moreover, the “percentage damage caused … ABUTH” value in the assay with ABUTH [6] is 2 (2=21-40%); in the assay with ABUTH [7] it was 3 (3=41-60%). The “percentage damage caused … ECHCG” value in [8] and in [10] was 2 (2=21-40%) in each case.

As for `C=C(C)Cn1nc(Cl)c2cccc(Oc3ncc(Cl)cn3)c21` [Compound 1.064], the “percentage damage caused … IPOHE” value in the assay with IPOHE [1] and with IPOHE [4] was 1 (1=0-20%) in each case. Also, the entries for the “percentage damage caused … AMARE” value in [2] and in [9] were 1 (1=0-20%) and 2 (2=21-40%), respectively. In addition, the “percentage damage caused … SETFA” value in the assay on Setaria faberi (SETFA) [3] and in the assay on Setaria faberi (SETFA) [5] was 1 (1=0-20%) throughout. Moreover, the “percentage damage caused … ABUTH” value is 1 (1=0-20%) in the assay with ABUTH [6] and 2 (2=21-40%) in the assay with ABUTH [7]. The “percentage damage caused … ECHCG” value in assay [8] and in assay [10] was 1 (1=0-20%) throughout.

Consider `C=CCn1nc(Cl)c2cccc(Oc3ncc(Cl)cn3)c21` [Compound 1.065], for which the “percentage damage caused … IPOHE” value in the assay on IPOHE [1] is given as 1 (1=0-20%); in the assay with IPOHE [4] it was 2 (2=21-40%). Further, the “percentage damage caused … AMARE” value is reported as 2 (2=21-40%) in assay [2] and 4 (4=61-80%) in assay [9]. The entries for the “percentage damage caused … SETFA” value with Setaria faberi (SETFA) [3] and in the assay on Setaria faberi (SETFA) [5] were 2 (2=21-40%) and 4 (4=61-80%), respectively. Also, the “percentage damage caused … ABUTH” value with ABUTH [6] and in the assay on ABUTH [7] was 2 (2=21-40%) throughout. Further, the “percentage damage caused … ECHCG” value in assay [8] is reported as 2 (2=21-40%); in assay [10], 3 (3=41-60%).

In the case of `CC(C)=CCCn1nc(Cl)c2cccc(Oc3ncc(Cl)cn3)c21` [Compound 1.066], the “percentage damage caused … IPOHE” value in the assay on IPOHE [1] is reported as 1 (1=0-20%); in the assay on IPOHE [4], 2 (2=21-40%). Besides, the “percentage damage caused … AMARE” value in [2] is recorded as 3 (3=41-60%); in [9], 4 (4=61-80%). Besides, the “percentage damage caused … SETFA” value was 3 (3=41-60%) in the assay with Setaria faberi (SETFA) [3] and 5 (5=81-100%) with Setaria faberi (SETFA) [5]. Besides, the “percentage damage caused … ABUTH” value in the assay on ABUTH [6] is 2 (2=21-40%); with ABUTH [7], 4 (4=61-80%). The “percentage damage caused … ECHCG” value is 3 (3=41-60%) in assay [8] and 4 (4=61-80%) in assay [10].

As for `CC(C)=CCn1nc(Cl)c2cccc(Oc3ncc(Cl)cn3)c21` [Compound 1.067], the “percentage damage caused … IPOHE” value is reported as 1 (1=0-20%) in the assay on IPOHE [1] and 2 (2=21-40%) in the assay with IPOHE [4]. For the same molecule, the figures for the “percentage damage caused … AMARE” value in [2] and in assay [9] were 3 (3=41-60%) and 4 (4=61-80%), respectively. Moreover, the “percentage damage caused … SETFA” value in the assay on Setaria faberi (SETFA) [3] is 3 (3=41-60%); in the assay on Setaria faberi (SETFA) [5], 4 (4=61-80%). The “percentage damage caused … ABUTH” value in the assay with ABUTH [6] is 2 (2=21-40%); with ABUTH [7], 3 (3=41-60%). In addition, the “percentage damage caused … ECHCG” value in assay [8] and in assay [10] was 3 (3=41-60%) each time.

Consider `FC(F)(F)CCCCn1nc(Cl)c2cccc(Oc3ncc(Cl)cn3)c21` [Compound 1.068], for which the “percentage damage caused … IPOHE” value with IPOHE [1] and in the assay with IPOHE [4] was 2 (2=21-40%) each time. Further, the “percentage damage caused … AMARE” value in assay [2] and in assay [9] was 5 (5=81-100%) each time. The “percentage damage caused … SETFA” value with Setaria faberi (SETFA) [3] is listed as 3 (3=41-60%); with Setaria faberi (SETFA) [5], 5 (5=81-100%). Besides, the “percentage damage caused … ABUTH” value in the assay on ABUTH [6] is reported as 2 (2=21-40%); in the assay with ABUTH [7] it was 4 (4=61-80%). Further, the “percentage damage caused … ECHCG” value is reported as 3 (3=41-60%) in assay [8] and 4 (4=61-80%) in assay [10].

On to `Cl/C=C/Cn1nc(Cl)c2cccc(Oc3ncc(Cl)cn3)c21` [Compound 1.069], for which the “percentage damage caused … IPOHE” value in the assay with IPOHE [1] is 1 (1=0-20%); with IPOHE [4] it was 2 (2=21-40%). For the same molecule, the “percentage damage caused … AMARE” value is recorded as 3 (3=41-60%) in [2] and 5 (5=81-100%) in assay [9]. In addition, the “percentage damage caused … SETFA” value with Setaria faberi (SETFA) [3] is reported as 2 (2=21-40%); in the assay with Setaria faberi (SETFA) [5], 5 (5=81-100%). The “percentage damage caused … ABUTH” value in the assay with ABUTH [6] was 2 (2=21-40%); in the assay with ABUTH [7] it was 4 (4=61-80%). Also, the “percentage damage caused … ECHCG” value in [8] and in [10] was 3 (3=41-60%) in each case.
